“Also recorded” adds a separate entry of the source.
How the values were obtained:
fungi = details: cited from earlier work
Source text: In the A-site, PamB2 contacts not only with 16S rRNA nucleotides in h44, but also A1913 from H69 of the 23S rRNA, and, in contrast to the P-site, the compound makes extensive interactions with the A-site tRNA, albeit less with the mRNA codon (Fig. 2c–f). Interactions of PamB2 with the A-site tRNA revolve around nucleotides ct^6A37 and A38, which are located in the anticodon-stem loop, directly adjacent to the anticodon (34CAU36) (Fig. 2e,f). Specifically, three direct hydrogen bonds are possible with A38 (Fig. 2e). Interactions with ct^6A37 are indirect, being mediated by water W6, which is co ...

E. coli 70S ribosome = assay: Cryo-EM of PamB2-stalled ribosome complexes; format: binding; details: 50 µM
Experimental: PamB2-ribosome complexes were generated by in vitro transcription–translation reactions in PURExpress in vitro protein synthesis system (New England Biolabs) with the same reaction mix as described earlier in the toeprinting assays. Complex formation reactions were carried out on MLIFstop toeprint DNA template in a 48 µl of reaction in presence of 50 µM PamB2. The reaction was incubated for 15 min at 37 °C. The reaction volume was then split: 42 µl were used for complex generation and 6 µl were used for toeprinting analysis. Ribosome complexes were isolated by centrifugation in 900 µl of sucrose gradient buffer (containing 40% sucrose, 50 mM HEPES-KOH, pH 7.4, 100 mM KOAc, 25 mM Mg(OAc)2 and 6 mM 2-mercaptoethanol) for 3 h at 4 °C with 80,000g in a Optima Max-XP Tabletop Ultracentrifuge with a TLA 120.2 rotor. The pelleted complex was resuspended in Hico buffer (50 mM HEPES-KOH, pH 7.4, 100 mM KOAc, 25 mM Mg(OAc)2) supplemented with 50 µM PamB2, then incubated for 15 min at 37 °C.
Sample volumes of 3.5 μl (eight at an optical density of 260 nm per milliliter) were applied to grids (Quantifoil, Cu, 300 mesh, R3/3 with 3-nm carbon) that had been freshly glow-discharged using a GloQube (Quorum Technologies) in negative charge mode at 25 mA for 90 s. Sample vitrification was performed using an ethane-propane mixture (37:63) in a Vitrobot Mark IV (Thermo Fisher Scientific), the chamber was set to 4 °C and 100% relative humidity and blotting was done for 3 s with no drain or wait time. Frozen cryo-EM grids were imaged on a TFS 300 kV Titan Krios at the Dubochet Center for Imaging EPFL (Lausanne, Switzerland). Images were collected on Falcon IV direct detection camera in counting mode using the EPU and AFIS data collection scheme with a magnification of ×96,000 and a total dose of 60 electrons per square angstrom (e^−/Å^2) for each exposure, and defocus ranging from −0.4 to −0.9 μm. In total, 7,638 videos were produced in EER format at a pixel size of 0.8 Å per pixel.
RELION v.4.0.1 (ref. [46]) was used for processing, unless otherwise specified. For motion correction, RELION’s implementation of MotionCor2 with 4×4 patches and for initial contrast transfer function (CTF) estimation CTFFIND v.4.1.14 (ref. [47]) was used. From 7,638 micrographs, 611,189 particles were picked using crYOLO v.1.8.04b47 with a general model. Then 562,816 ribosome-like particles were selected after two-dimensional classification and extracted at three times decimated pixel size (2.4 Å per pixel) (Supplementary Fig. 1b,c). An initial three-dimensional (3D) refinement was done using a E. coli 70S reference map (EMD-12573)[30]. […]

[1] = test system: ribosomes translating ErmBL mRNA; assay: Toeprinting on ErmBL mRNA with mutated second codon (Fig. 4b); format: biochemical, E. coli; details: 50 µM, in duplicate
Experimental: Toeprinting reactions for Fig. 4b and Extended Data Fig. 2 were performed as described previously. Briefly, reactions were performed with 6 μl of PURExpress in vitro protein synthesis system (New England Biolabs). The reactions were carried out with different primers and templates (Supplementary Tables 2 and 3). The reactions contained 340 ng of the respective mRNA template and were supplemented with the different compounds as specified. The translation reactions were incubated for 30 min at 37 °C. The reverse transcription reaction was carried out using AMV RT and primer NV*1-Alexa 647 (5′-[…]-3′). The translation reactions were incubated with the reverse transcriptase and the primer for 20 min at 37 °C. mRNA degradation was carried out by the addition of 1 µl of 5 M NaOH. The reactions were neutralized with 0.7 µl of 25% HCl, and nucleotide removal was performed with the QIAquick Nucleotide Removal Kit (Qiagen). The samples were dried under vacuum for 2 h at 60 °C for subsequent gel electrophoresis. The 6% acrylamide gels were scanned on a Typhoon scanner (GE Healthcare).

[2] = test system: eukaryotic in vitro translation; assay: Eukaryotic in vitro translation assay (Rabbit Reticulocyte Lysate System); format: biochemical; details: 0.01-10 µM
Experimental: The effect of PamB2 on eukaryotic translation was determined using the Rabbit Reticulocyte Lysate System (Promega) as previously described. Briefly, 6-μl reactions, with or without PamB2 were mixed according to the manufacturer’s description and incubated for 30 min at 32 °C with shaking (600 rpm). Each reaction was stopped by adding 3 μl of cycloheximide (600 μM). All samples were diluted with 40 μl of Luciferase assays substrate (Promega) into a white 96-well chimney flat-bottom microtiter plate (Greiner). The luminescence was then measured using a Tecan Infinite M1000 plate reader. Relative values were determined by defining the luminescence value of the sample without inhibitor as 100%.

Substance: paenilamicin B2 [PamB2]
- antifungal activity (fungi): antifungal activity
- binding to elongating ribosomes (density) (E. coli 70S ribosome; A- and P-site tRNAs (nonrotated) or A/P- and P/E-hybrid tRNAs (rotated), 2.2-2.3 Å): additional density located between the A- and P-site tRNAs that could be unambiguously assigned to PamB2; also recorded: binds stably to the small subunit of elongating ribosomes containing A- and P-site transfer RNAs (tRNAs)
- binding to initiating ribosomes (density) (E. coli 70S ribosome; P-site tRNA only, 2.4 Å): No density for PamB2 was evident; also recorded: not to initiating ribosomes bearing only a P-site tRNA
- peptide bond formation in PamB2-bound elongation complexes (E. coli 70S ribosome; additional density on CCA-end of A-site and A/P-tRNA): peptide bond formation has already occurred
- binding site on the ribosome (E. coli 70S ribosome; cryo-EM): located predominantly on the 30S subunit of the 70S ribosome, where it inserts into the cleft between the A- and P-site tRNAs
- inhibition of first translocation, A-site codon AUG ([1]; ErmBL mRNA second codon AUG): clear toeprint bands
- inhibition of first translocation, A-site codon CUG ([1]; ErmBL mRNA second codon CUG (tRNALeu, m1G37)): appeared to be stronger than with U, it was reproducibly weaker than with A and G
- inhibition of first translocation, A-site codon GUG ([1]; ErmBL mRNA second codon GUG): appeared to be the strongest
- inhibition of first translocation, A-site codon UUG ([1]; ErmBL mRNA second codon UUG): little to no inhibition of the first translocation event
- inhibition of eukaryotic in vitro translation (in words) [2]: efficiently inhibits eukaryotic in vitro translation
